In the OligoGym collection one finds target mRNA inhibition data, which are given here for 54 sequences.

The target in the data set is KRAS. Particulars: ASO.

Values joined by “and” are separate entries in the source; they are usually repeats but may differ in a detail not shown here. Identical values can stand only once. After the bases stand the sugars from the 5' end (letter, count) and the backbone: PS all phosphorothioate, else s phosphorothioate and o phosphodiester by linkage. Methylation of C is not given here. e = 2'-O-(2-methoxyethyl) (MOE); k = constrained ethyl (cEt); d = 2'-deoxy (DNA)

Take CTCTTGATTTGTCAGC (sugars k3 d10 k3, PS): the target mRNA inhibition is 66% (A431, 0.037 µM); 64% and 57% (A431, 0.125 µM); 55.4% (NCI-H460, 0.037 µM).
With CTTATGCAGAGAAAAC (sugars k3 d10 k3, PS), the target mRNA inhibition (A431, 2 µM) turned out to be 8%.
The same measure, in the same setting: the result for “CTTGATTTGTCAGCAG (sugars kkdddddddddkekek, PS)” reads 49%; that for GACTAATAGCAGTGGA (sugars k3 d10 k3, PS), 52% and 62%.
GAGGCAAGATGACACT (sugars k3 d10 k3, PS) gave a target mRNA inhibition (A431, 2 µM) of 0%.
The same measure, in the same setting: then “GAGTCTTTATAGTAAT (sugars kddddddddddkekek, PS)”, with 11%; and “GATTGTGCTGAGCTTG (sugars kkddddddddddkeke, PS)”, with 19%.
Same read-out and setting: then “GATTGTGCTGAGCTTG (sugars kkkddddddddkekek, PS)”, with 37%.
Regarding GATTTGTCAGCAGGAC (sugars k3 d10 k3, PS), the target mRNA inhibition (A431, 0.037 µM) came out at 68%; the target mRNA inhibition (A431, 2 µM) was 47%; the target mRNA inhibition (A431, 5 µM) is 96% and 93%; the target mRNA inhibition (NCI-H460, 0.037 µM) worked out at 60.1%.
Take “GATTTGTCAGCAGGAC (sugars kddddddddddkekek, PS)”: the target mRNA inhibition came out at 16% (A431, 0.185 µM); 46% (A431, 0.556 µM); 62% (A431, 1.667 µM); 57% (A431, 2 µM); 78% (A431, 5 µM).
Sequence “GATTTGTCAGCAGGAC (sugars kdddddddddkekeke, PS)” displayed a target mRNA inhibition (A431, 2 µM) of 32%.
Still for that read-out and setting: the result for GCAAGATGACACTAAT (sugars k3 d10 k3, PS) reads 30%.
GCAATGTTAATTTAAC (sugars k3 d10 k3, PS) had a target mRNA inhibition (A431, 2 µM) of 17%.
Consider GCAGTGTGACTCAGTT (sugars k3 d10 k3, PS), for which the target mRNA inhibition (A431, 2 µM) was determined as 48%.
The same measure, in the same setting: then GCTAAAACAAATGCTA (sugars k3 d10 k3, PS), with 33%.
For the sequence GCTAATAATTTAGTGT (sugars k3 d10 k3, PS), the target mRNA inhibition (A431, 2 µM) was 18%.
On the same count and under the same terms, the result for “GGAGTCTTTATAGTAA (sugars kkkddddddddkekek, PS)” reads 0%.
Same read-out and setting: then GGCATTGCTAGTTCAA (sugars k3 d10 k3, PS), with 43%; and GGTGAATATCTTCAAA (sugars k3 d10 k3, PS), with 28%.
Take “GGTGTAACATAGGTTA (sugars kddddddddddkekek, PS)”: the target mRNA inhibition was 15% (A431, 0.185 µM); 39% (A431, 0.556 µM); 62% (A431, 1.667 µM); 64% (A431, 2 µM); 80% (A431, 5 µM).
On to “GGTGTAACATAGGTTA (sugars kdddddddddkekeke, PS)”, for which the target mRNA inhibition stood at 1% (A431, 0.185 µM); 35% (A431, 0.556 µM); 56% (A431, 1.667 µM); 57% (A431, 2 µM); 71% (A431, 5 µM); 52.2% (NCI-H460, 0.037 µM).
On to GTCCAGTGATACTTTC (sugars k3 d10 k3, PS), for which, for the setting “A431, 2 µM”, the target mRNA inhibition is 44%.
With “GTCCAGTGATACTTTC (sugars kdddddddddkekeke, PS)”, under “A431, 2 µM”, the target mRNA inhibition came to 20%.
“GTCCAGTGATACTTTC (sugars kkkdddddddddkeke, PS)”: the target mRNA inhibition (A431, 2 µM) was determined as 33%.
Same read-out and setting: then “GTCCAGTGATACTTTC (sugars kkkddddddddkdkdk, PS)”, with 30%; and GTCTATTCATACCAGG (sugars k3 d10 k3, PS), with 60%; and GTGTAACATAGGTTAA (sugars k3 d10 k3, PS), with 30%.
As for “GTGTTTATGCAATGTT (sugars kkdddddddddkekek, PS)”, the target mRNA inhibition turned out to be 22% (A431, 0.185 µM); 54% (A431, 0.556 µM); 77% (A431, 1.667 µM); 65% (A431, 2 µM); 83% (A431, 5 µM).
Sequence TAAAACAAATGCTAAT (sugars k3 d10 k3, PS) yielded a target mRNA inhibition (A431, 2 µM) of 5%.
Still for that read-out and setting: the result for TAATTACTTATGCAGA (sugars k3 d10 k3, PS) reads 17%; that for TACTTATGCAGAGAAA (sugars k3 d10 k3, PS), 0%; that for TAGTTTCACATAGCAA (sugars k3 d10 k3, PS), 51%.
The same measure, in the same setting: then TAGTTTCCATTGCCTT (sugars k3 d10 k3, PS), with 16%; and TATCTTGTTGAGCTAT (sugars k3 d10 k3, PS), with 33%; and TATGCAATGTTAATTT (sugars k3 d10 k3, PS), with 8%.
On the same count and under the same terms, the result for “TCCAGTGATACTTTCA (sugars kkdddddddddkekek, PS)” reads 37%; that for “TCCAGTGATACTTTCA (sugars kkddddddddkekekk, PS)”, 24%; that for “TCCATTTATGTGACTA (sugars kkkdddddddddkeke, PS)”, 8%.
In turn, TCTATTCATACCAGGT (sugars k3 d10 k3, PS) gave a target mRNA inhibition (A431, 2 µM) of 26%.
Still for that read-out and setting: the result for TCTGTCTATTCATACC (sugars k3 d10 k3, PS) reads 12%.
The same measure, in the same setting: the result for TCTTATGGTTAGGGGA (sugars k3 d10 k3, PS) reads 8%.
With “TCTTGATTTGTCAGCA (sugars kkddddddddddkeke, PS)”, the target mRNA inhibition is 84% (A431, 0.037 µM); 65% and 61% (A431, 0.125 µM); 91% and 92% (A431, 2 µM); 67.6% (NCI-H460, 0.037 µM).
For TGAATTAGTCTCCATT (sugars k3 d10 k3, PS), the target mRNA inhibition (A431, 2 µM) amounted to 17%.
On the same count and under the same terms, then “TGATTTGTCAGCAGGA (sugars kdddddddddkekeke, PS)”, with 32%; and “TGATTTGTCAGCAGGA (sugars kkdddddddddkdkdk, PS)”, with 15%; and TGCAGTGTGACTCAGT (sugars k3 d10 k3, PS), with 55%.
The sequence TGCTAATAATTTAGTG (sugars k3 d10 k3, PS) returned a target mRNA inhibition (A431, 2 µM) of 6%.
On the same count and under the same terms, the result for TGCTGTGAAACTCTCT (sugars k3 d10 k3, PS) reads 27%.
The same measure, in the same setting: the result for “TGCTGTGAAACTCTCT (sugars kkdddddddddkdkdk, PS)” reads 26%.
“TGGTGTAACATAGGTT (sugars kkdddddddddkekek, PS)”: the target mRNA inhibition is, setting by setting: (A431, 0.185 µM) 21%; (A431, 0.556 µM) 45%; (A431, 1.667 µM) 66%; (A431, 2 µM) 62%; (A431, 5 µM) 83%.
On the same counts, the results for “TGGTGTAACATAGGTT (sugars kkkddddddddkekek, PS)” are 31%, 53%, 79%, 67% and 82%.
Regarding TGTATCTTGTTGAGCT (sugars k3 d10 k3, PS), the target mRNA inhibition (A431, 2 µM) was determined as 31%.
The same measure, in the same setting: then TGTCTATTCATACCAG (sugars k3 d10 k3, PS), with 16%; and TGTGAAACTCTCTATG (sugars k3 d10 k3, PS), with 4%.
